Common to all, as to assay type: cell-based
What all share (conditions): Table 7; cAMP formation

Test [1] deals with T1, human GLP-1 receptor (hGLP-1 R) (Homo sapiens, UniProt P43220).
T1 construct: expressed in transfected cells
Description: cAMP response of HEK-293 cells stably expressing human GLP-1 receptor (HTRF). The method in brief: (§1)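 cAMP accumulation was read by homogeneous time-resolved fluorescence after 30 min compound exposure at room temperature. Stable receptor-expressing HEK-293 cells, 400000 cells/ml, were used in HEPES-buffered HBSS containing 0.1% BSA and the phosphodiesterase inhibitor IBMX (2 mM).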
For orientation: In TR-FRET formats the signal depends on donor and acceptor labels being close together.

The target of test [2] is T2, human GIP receptor (hGIP R) (Homo sapiens, UniProt P48546).
T2 construct: expressed in transfected cells
T2 sequence (P48546 22-466): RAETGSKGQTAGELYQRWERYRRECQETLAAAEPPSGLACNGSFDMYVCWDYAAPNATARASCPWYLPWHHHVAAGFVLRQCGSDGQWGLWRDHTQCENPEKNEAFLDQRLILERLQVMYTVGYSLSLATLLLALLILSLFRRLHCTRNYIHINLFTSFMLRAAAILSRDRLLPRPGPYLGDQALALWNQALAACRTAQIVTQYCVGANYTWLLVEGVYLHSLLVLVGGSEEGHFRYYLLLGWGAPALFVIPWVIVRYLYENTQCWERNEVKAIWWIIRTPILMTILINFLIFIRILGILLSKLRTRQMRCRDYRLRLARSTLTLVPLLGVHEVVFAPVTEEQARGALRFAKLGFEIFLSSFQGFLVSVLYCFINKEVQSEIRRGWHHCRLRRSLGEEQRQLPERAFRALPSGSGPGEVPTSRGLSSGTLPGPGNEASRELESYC
As to the kind of experiment: cAMP response of HEK-293 cells stably expressing human GIP receptor (HTRF). The method in brief: as §1

The target in test [3] is T3, human glucagon receptor (hGLUC R) (Homo sapiens, UniProt P47871).
T3 construct: expressed in transfected cells
As to the kind of experiment: cAMP response of HEK-293 cells stably expressing human glucagon receptor (HTRF). The method in brief:
as §1

Each structure is given as a SMILES string. pEC50: −log10 of the molar value. *1 amine or outer side, *2 acyl side, *3 side chain or, on linkers, in order; H or OH if unused. Where a SMILES comes first, the peptide text is derived from it. Side-chain parts run from the residue outwards. [ ]: non-standard residue; d: D form. The star is where a group is joined. γGlu = O=C(O)[C@H](CCC(=O)[*:2])N[*:1]; Stearoyl = CCCCCCCCCCCCCCCCCC(=O)*; Palmitoyl = CCCCCCCCCCCCCCCC(=O)*; Aib = CC(C)(N)C(=O)O

One may read the pEC50 as the negative decadic logarithm of the EC50, by convention in mol/L. High values mean a low EC50, low ones a high EC50.

T1 sequence (P43220 24-463): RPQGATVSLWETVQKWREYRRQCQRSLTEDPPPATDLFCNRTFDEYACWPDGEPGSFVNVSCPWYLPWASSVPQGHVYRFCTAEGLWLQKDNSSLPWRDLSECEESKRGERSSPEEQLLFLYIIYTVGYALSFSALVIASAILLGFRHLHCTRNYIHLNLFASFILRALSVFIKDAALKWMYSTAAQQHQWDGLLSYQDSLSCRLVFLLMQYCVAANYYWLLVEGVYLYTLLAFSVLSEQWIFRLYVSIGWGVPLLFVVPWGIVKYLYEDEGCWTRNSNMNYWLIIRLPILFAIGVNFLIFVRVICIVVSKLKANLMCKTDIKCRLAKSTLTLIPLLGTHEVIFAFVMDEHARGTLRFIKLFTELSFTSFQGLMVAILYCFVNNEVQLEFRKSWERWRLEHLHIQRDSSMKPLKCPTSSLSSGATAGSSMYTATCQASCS
T3 sequence (P47871 26-477): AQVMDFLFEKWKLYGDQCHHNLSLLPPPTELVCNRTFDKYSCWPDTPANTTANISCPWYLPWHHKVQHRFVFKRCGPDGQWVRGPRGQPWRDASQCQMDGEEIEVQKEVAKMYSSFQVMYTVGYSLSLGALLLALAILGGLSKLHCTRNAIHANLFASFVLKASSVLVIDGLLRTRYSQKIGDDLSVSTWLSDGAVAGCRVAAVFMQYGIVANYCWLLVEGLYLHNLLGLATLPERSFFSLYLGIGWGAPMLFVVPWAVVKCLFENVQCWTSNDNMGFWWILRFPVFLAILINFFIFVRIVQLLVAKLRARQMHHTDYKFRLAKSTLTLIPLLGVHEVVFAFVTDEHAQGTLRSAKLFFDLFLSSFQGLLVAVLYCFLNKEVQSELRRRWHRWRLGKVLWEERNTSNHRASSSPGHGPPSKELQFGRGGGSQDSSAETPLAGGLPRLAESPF

For the compound `CCCCCCCCCCCCCCCC(=O)N[C@@H](CCC(=O)NCCCC[C@H](NC(=O)[C@H](CCC(N)=O)NC(=O)[C@@H](NC(=O)[C@H](CO)NC(=O)[C@H](CC(C)C)NC(=O)[C@H](CC(=O)O)NC(=O)[C@H](CO)NC(=O)[C@@H](NC(=O)[C@H](Cc1ccccc1)NC(=O)[C@@H](NC(=O)CNC(=O)[C@H](CCC(N)=O)NC(=O)C(C)(C)NC(=O)[C@@H](N)Cc1ccc(O)cc1)[C@@H](C)O)[C@@H](C)O)[C@@H](C)CC)C(=O)N[C@@H](CC(=O)O)C(=O)N[C@@H](CO)C(=O)N[C@@H](CCCNC(=N)N)C(=O)N[C@@H](CCCNC(=N)N)C(=O)N[C@@H](C)C(=O)N[C@@H](CCC(N)=O)C(=O)N[C@@H](CC(=O)O)C(=O)N[C@@H](Cc1ccccc1)C(=O)N[C@H](C(=O)N[C@@H](CCC(=O)O)C(=O)N[C@@H](Cc1c[nH]c2ccccc12)C(=O)N[C@@H](CC(C)C)C(=O)N[C@@H](CCCCN)C(=O)N[C@@H](C)C(=O)NCC(=O)NCC(=O)N1CCC[C@H]1C(=O)N[C@@H](CO)C(=O)N[C@@H](CO)C(=O)NCC(=O)N[C@@H](C)C(=O)N1CCC[C@H]1C(=O)N1CCC[C@H]1C(=O)N1CCC[C@H]1C(=O)N[C@@H](CO)C(N)=O)[C@@H](C)CC)C(=O)O` [SEQ ID NO: 52, Y-Aib-Q-G-T-F-T-S-D-L-S-I-Q-K(yE-x53)-DSRRAQDFIEWLKAGGPSSGAPPPS-NH2] (H-Y[Aib]QGTFTSDLSIQK([γGlu-Palmitoyl])DSRRAQDFIEWLKAGGPSSGAPPPS-NH2), the pEC50 is 10.59 in test [1], 9.74 in test [2] and 10.88 in test [3].
In the same order, the values of `CCCCCCCCCCCCCCCC(=O)N[C@@H](CCC(=O)NCCCC[C@H](NC(=O)[C@H](CCC(N)=O)NC(=O)[C@@H](NC(=O)[C@H](CO)NC(=O)[C@H](CC(C)C)NC(=O)[C@H](CC(=O)O)NC(=O)[C@H](CO)NC(=O)[C@@H](NC(=O)[C@H](Cc1ccccc1)NC(=O)[C@@H](NC(=O)CNC(=O)[C@H](CCC(N)=O)NC(=O)C(C)(C)NC(=O)[C@@H](N)Cc1ccc(O)cc1)[C@@H](C)O)[C@@H](C)O)[C@@H](C)CC)C(=O)N[C@@H](CCC(=O)O)C(=O)N[C@@H](CCCCN)C(=O)N[C@@H](CCCNC(=N)N)C(=O)N[C@@H](C)C(=O)N[C@@H](C)C(=O)NC(C)(C)C(=O)N[C@@H](Cc1ccc(O)cc1)C(=O)N[C@@H](Cc1ccccc1)C(=O)N[C@H](C(=O)N[C@@H](CCC(=O)O)C(=O)N[C@@H](Cc1c[nH]c2ccccc12)C(=O)N[C@@H](CC(C)C)C(=O)N[C@@H](CCCCN)C(=O)N[C@@H](CC(N)=O)C(=O)N[C@H](C(=O)NCC(=O)N1CCC[C@H]1C(=O)N[C@@H](CO)C(=O)N[C@@H](CO)C(=O)NCC(=O)N[C@@H](C)C(=O)N1CCC[C@H]1C(=O)N1CCC[C@H]1C(=O)N1CCC[C@H]1C(=O)N[C@@H](CO)C(N)=O)[C@@H](C)O)[C@@H](C)CC)C(=O)O` [SEQ ID NO: 23, Y-Aib-Q-G-T-F-T-S-D-L-S-I-Q-K(yE-x53)-E-K-R-A-A-Aib-Y-F-I-E-W-L-K-N-T-G-P-S-S-G-A-P-P-P-S-NH2] (H-Y[Aib]QGTFTSDLSIQK([γGlu-Palmitoyl])EKRAA[Aib]YFIEWLKNTGPSSGAPPPS-NH2) are 11.04, 9.87 and 9.51.
Taken in the same sequence, the figures for `CCCCCCCCCCCCCCCC(=O)N[C@@H](CCC(=O)NCCCC[C@H](NC(=O)[C@H](CCC(N)=O)NC(=O)[C@@H](NC(=O)[C@H](CO)NC(=O)[C@H](CC(C)C)NC(=O)[C@H](CC(=O)O)NC(=O)[C@H](CO)NC(=O)[C@@H](NC(=O)[C@H](Cc1ccccc1)NC(=O)[C@@H](NC(=O)CNC(=O)[C@H](CCC(N)=O)NC(=O)C(C)(C)NC(=O)[C@@H](N)Cc1ccc(O)cc1)[C@@H](C)O)[C@@H](C)O)[C@@H](C)CC)C(=O)N[C@@H](CCC(=O)O)C(=O)N[C@@H](CCCCN)C(=O)N[C@@H](CC(C)C)C(=O)N[C@@H](C)C(=O)N[C@@H](C)C(=O)NC(C)(C)C(=O)N[C@@H](CCC(=O)O)C(=O)N[C@@H](Cc1ccccc1)C(=O)N[C@H](C(=O)N[C@@H](CCC(=O)O)C(=O)N[C@@H](Cc1c[nH]c2ccccc12)C(=O)N[C@@H](CC(C)C)C(=O)N[C@@H](CCCCN)C(=O)N[C@@H](CC(N)=O)C(=O)N[C@H](C(=O)NCC(=O)N1CCC[C@H]1C(=O)N[C@@H](CO)C(=O)N[C@@H](CO)C(=O)NCC(=O)N[C@@H](C)C(=O)N1CCC[C@H]1C(=O)N1CCC[C@H]1C(=O)N1CCC[C@H]1C(=O)N[C@@H](CO)C(N)=O)[C@@H](C)O)[C@@H](C)CC)C(=O)O` [SEQ ID NO: 8, Y-Aib-Q-G-T-F-T-S-D-L-S-I-Q-K(yE-x53)-E-K-L-A-A-Aib-E-F-I-E-W-L-K-N-T-G-P-S-S-G-A-P-P-P-S-NH2] (H-Y[Aib]QGTFTSDLSIQK([γGlu-Palmitoyl])EKLAA[Aib]EFIEWLKNTGPSSGAPPPS-NH2) were 11.06, 10.59 and 9.10.
With `CCCCCCCCCCCCCCCCCC(=O)N[C@@H](CCC(=O)NCCCC[C@H](NC(=O)[C@H](CCC(N)=O)NC(=O)[C@@H](NC(=O)[C@H](CO)NC(=O)[C@H](CC(C)C)NC(=O)[C@H](CC(=O)O)NC(=O)[C@H](CO)NC(=O)[C@@H](NC(=O)[C@H](Cc1ccccc1)NC(=O)[C@@H](NC(=O)CNC(=O)[C@H](CCC(=O)O)NC(=O)C(C)(C)NC(=O)[C@@H](N)Cc1ccc(O)cc1)[C@@H](C)O)[C@@H](C)O)[C@@H](C)CC)C(=O)N[C@@H](CCC(=O)O)C(=O)N[C@@H](CO)C(=O)N[C@@H](CCCCN)C(=O)N[C@@H](C)C(=O)N[C@@H](C)C(=O)N[C@@H](Cc1c[nH]cn1)C(=O)N[C@@H](CCC(=O)O)C(=O)N[C@@H](Cc1ccccc1)C(=O)N[C@H](C(=O)N[C@@H](CCC(=O)O)C(=O)N[C@@H](Cc1c[nH]c2ccccc12)C(=O)N[C@@H](CC(C)C)C(=O)N[C@@H](CCCCN)C(=O)N[C@@H](C)C(=O)NCC(=O)NCC(=O)N1CCC[C@H]1C(=O)N[C@@H](CO)C(=O)N[C@@H](CO)C(=O)NCC(=O)N[C@@H](C)C(=O)N1CCC[C@H]1C(=O)N1CCC[C@H]1C(=O)N1CCC[C@H]1C(=O)N[C@@H](CO)C(=O)N[C@@H](CCCCN)C(N)=O)[C@@H](C)CC)C(=O)O` [SEQ ID NO: 58, Y-Aib-E-G-T-F-T-S-D-L-S-I-Q-K(yE-x70)-ESKAAHEFIEWLKAGGPSSGAPPPSK-NH2] (H-Y[Aib]EGTFTSDLSIQK([γGlu-Stearoyl])ESKAAHEFIEWLKAGGPSSGAPPPSK-NH2), the negative-log EC50 (pEC50) is 10.90 in test [1], 11.07 in test [2] and 7.80 in test [3].
Take `CCCCCCCCCCCCCCCC(=O)N[C@@H](CCC(=O)NCCCC[C@H](NC(=O)[C@H](CCC(N)=O)NC(=O)[C@@H](NC(=O)[C@H](CO)NC(=O)[C@H](CC(C)C)NC(=O)[C@H](CC(=O)O)NC(=O)[C@H](CO)NC(=O)[C@@H](NC(=O)[C@H](Cc1ccccc1)NC(=O)[C@@H](NC(=O)CNC(=O)[C@H](CCC(N)=O)NC(=O)C(C)(C)NC(=O)[C@@H](N)Cc1ccc(O)cc1)[C@@H](C)O)[C@@H](C)O)[C@@H](C)CC)C(=O)N[C@@H](CCC(=O)O)C(=O)N[C@@H](CCCCN)C(=O)NC(C)(C)C(=O)N[C@@H](C)C(=O)N[C@@H](C)C(=O)NC(C)(C)C(=O)N[C@@H](CCC(=O)O)C(=O)N[C@@H](Cc1ccccc1)C(=O)N[C@H](C(=O)N[C@@H](CCC(=O)O)C(=O)N[C@@H](Cc1c[nH]c2ccccc12)C(=O)N[C@@H](CC(C)C)C(=O)N[C@@H](CCCCN)C(=O)N[C@@H](CC(N)=O)C(=O)N[C@H](C(=O)NCC(=O)N1CCC[C@H]1C(=O)N[C@@H](CO)C(=O)N[C@@H](CO)C(=O)NCC(=O)N[C@@H](C)C(=O)N1CCC[C@H]1C(=O)N1CCC[C@H]1C(=O)N1CCC[C@H]1C(=O)N[C@@H](CO)C(N)=O)[C@@H](C)O)[C@@H](C)CC)C(=O)O` [SEQ ID NO: 9, Y-Aib-Q-G-T-F-T-S-D-L-S-I-Q-K(yE-x53)-E-K-Aib-A-A-Aib-E-F-I-E-W-L-K-N-T-G-P-S-S-G-A-P-P-P-S-NH2] (H-Y[Aib]QGTFTSDLSIQK([γGlu-Palmitoyl])EK[Aib]AA[Aib]EFIEWLKNTGPSSGAPPPS-NH2): the pEC50 was 11.26 in test [1], 11.05 in test [2] and 9.35 in test [3].

These data come from patent US20140213513A1 (Sanofi, priority 2012, published 2014).
